This note sets out measurements from PubChem BioAssay AID1195 (EPA DSSTox, 2008).

Molecules are shown by their SMILES.

The data set has as its system human maximum recommended daily dose, FDA database. In words: DSSTox (FDAMDD) FDA Maximum (Recommended) Daily Dose Database. Conditions: hits give low values. An outline of the steps: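 MRDD values come from clinical trials with daily oral dosing, usually for 3–12 months, for the average adult, in mg/day converted to mg/kg-bw/day assuming 60 kg. Antineoplastic mg/m2 doses are divided by 37. Activity score maps log10(1/MRDD mmol) onto 1–100.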

Setting [1] is: TherapeuticCategory: bronchodilator.
The mark [2] stands for this setting: TherapeuticCategory: antibacterial.
Where [3] appears, read: TherapeuticCategory: antineoplastic.
Where [4] appears, read: TherapeuticCategory: anticoagulant.
Where [5] appears, read: TherapeuticCategory: sedative, hypnotic.
Where [6] appears, read: TherapeuticCategory: anthelmintic.
[7] abbreviates: TherapeuticCategory: glucocorticoid.
[8] abbreviates: TherapeuticCategory: antiemetic.
Setting [9] is: TherapeuticCategory: analgesic, anti inflammatory.

`CC[N+]1(C)[C@@H]2CC(OC(=O)[C@H](CO)c3ccccc3)C[C@H]1[C@@H]1O[C@@H]12` (some centres undefined): under setting [1], the maximum recommended daily dose (mmol/kg-bw/day) was 2.43e-05. With `N[C@@H](Cc1cnc[nH]1)C(=O)O`, the maximum recommended daily dose (mmol/kg-bw/day) (TherapeuticCategory: none) is 0.645. In the case of `O=C(O)C(Cl)Cl`, under “TherapeuticCategory: caustic, keratolytic, topical astringent”, the maximum recommended daily dose (mmol/kg-bw/day) is 0.517.

As to `CCOC(=O)[C@H](CCc1ccccc1)N[C@H]1CCc2ccccc2N(CC(=O)O)C1=O`, the maximum recommended daily dose (mmol/kg-bw/day) (TherapeuticCategory: antihypertensive, ACE inhibitor) is 0.00313.

As for `CC1CCCC(C)N1NC(=O)c1ccc(Cl)c(S(N)(=O)=O)c1` (centres undefined), for the setting “TherapeuticCategory: antihypertensive, diuretic”, the maximum recommended daily dose (mmol/kg-bw/day) is 0.00289. Consider `CCC(C)C(C)(COC(N)=O)COC(N)=O` (centres undefined), for which the maximum recommended daily dose (mmol/kg-bw/day) (TherapeuticCategory: antihypertensive) is 0.0861. As to `COc1ccc2c3c1O[C@H]1C(=O)CC[C@@]4(O)[C@@H](C2)N(C)CC[C@]314`, the maximum recommended daily dose (mmol/kg-bw/day) (TherapeuticCategory: narcotic analgesic) was 0.0169.

On to `CC1=C(C(=O)O)N2C(=O)[C@@H](NC(=O)[C@H](N)c3ccc(O)cc3)[C@H]2SC1`, for which, under setting [2], the maximum recommended daily dose (mmol/kg-bw/day) is 0.046. For the compound `CC(=O)O[C@H]1C(=O)[C@@]2(C)[C@H]([C@H](OC(=O)c3ccccc3)[C@]3(O)C[C@H](OC(=O)[C@H](O)[C@@H](NC(=O)c4ccccc4)c4ccccc4)C(C)=C1C3(C)C)[C@]1(OC(C)=O)CO[C@@H]1C[C@@H]2O`, under setting [3], the maximum recommended daily dose (mmol/kg-bw/day) was 0.00554. In the case of `CC[N+]1(C)CCCC(OC(=O)C(O)(c2ccccc2)c2ccccc2)C1` (centres undefined), where the note is “TherapeuticCategory: anticholinergic”, the maximum recommended daily dose (mmol/kg-bw/day) was 0.000576. Regarding `CCOC(=O)C1=C(C)NC(C)=C(C(=O)OC)C1c1cccc(Cl)c1Cl` (centres undefined), the maximum recommended daily dose (mmol/kg-bw/day) (TherapeuticCategory: antihypertensive, antianginal) is 0.000867. `CN(C)C(=N)N=C(N)N`: the maximum recommended daily dose (mmol/kg-bw/day) (TherapeuticCategory: antidiabetic) was 0.387. With `CC(CCc1ccc(O)cc1)NCCc1ccc(O)c(O)c1` (centres undefined), for the setting “TherapeuticCategory: cardiotonic”, the maximum recommended daily dose (mmol/kg-bw/day) is 0.000133.

Consider `OCCOCCN1CCN(C2=Nc3ccccc3Sc3ccccc32)CC1`, for which the maximum recommended daily dose (mmol/kg-bw/day) (TherapeuticCategory: antipsychotic) was 0.0347.

Turning to `Clc1ccccc1CN1CCc2sccc2C1`, the maximum recommended daily dose (mmol/kg-bw/day) (TherapeuticCategory: platelet aggregation inhibitor) is 0.0158.

As to `COCC1=C(C(=O)O)N2C(=O)[C@@H](NC(=O)/C(=N\OC)c3csc(N)n3)[C@H]2SC1`, under setting [2], the maximum recommended daily dose (mmol/kg-bw/day) was 0.0234.

Consider `CC(=O)CC(c1ccccc1)c1c(O)c2ccccc2oc1=O` (centres undefined), for which the maximum recommended daily dose (mmol/kg-bw/day) under setting [4] is 0.000542. On to `Cn1c(=O)c2c(ncn2CC2OCCO2)n(C)c1=O`, for which the maximum recommended daily dose (mmol/kg-bw/day) under setting [1] was 0.05. Consider `C=CCC1(CC(C)C)C(=O)NC(=O)NC1=O`, for which, under setting [5], the maximum recommended daily dose (mmol/kg-bw/day) is 0.0223. For `O=C(O)C(S)C(S)C(=O)O` (centres undefined), where the note is “TherapeuticCategory: antidote for heavy metal poisoning, radioactive imaging agent”, the maximum recommended daily dose (mmol/kg-bw/day) is 0.0549. With `C[C@@H]1C/C=C/C=C/C=C/C=C/[C@H](O[C@@H]2O[C@H](C)[C@@H](O)[C@H](N)[C@@H]2O)C[C@@H]2O[C@](O)(C[C@@H](O)C[C@H]3O[C@@H]3/C=C/C(=O)O1)C[C@H](O)[C@H]2C(=O)O`, the maximum recommended daily dose (mmol/kg-bw/day) under setting [2] was 0.000413. Turning to `CCC(c1ccccc1)c1c(O)c2ccccc2oc1=O` (centres undefined), the maximum recommended daily dose (mmol/kg-bw/day) under setting [4] was 0.00143. In the case of `C#CC1(OC(N)=O)CCCCC1`, under setting [5], the maximum recommended daily dose (mmol/kg-bw/day) is 0.0999. Turning to `COC(=O)Nc1nc2ccc(C(=O)c3ccc(F)cc3)cc2[nH]1`, the maximum recommended daily dose (mmol/kg-bw/day) under setting [6] was 0.00533. Take `CCC(C)n1ncn(-c2ccc(N3CCN(c4ccc(OC[C@H]5CO[C@](Cn6cncn6)(c6ccc(Cl)cc6Cl)O5)cc4)CC3)cc2)c1=O` (some centres undefined): the maximum recommended daily dose (mmol/kg-bw/day) (TherapeuticCategory: antifungal) was 0.0142.

With `COc1cc(C)c(/C=C/C(C)=C/C=C/C(C)=C/C(=O)O)c(C)c1C`, the maximum recommended daily dose (mmol/kg-bw/day) (TherapeuticCategory: antipsoriatic) is 0.00383.

`CCOC(=O)CCCCCCCCC(C)c1ccccc1I` (centres undefined): the maximum recommended daily dose (mmol/kg-bw/day) (TherapeuticCategory: diagnostic aid) was 0.3. `CC(C)(Oc1ccc(C2CC2(Cl)Cl)cc1)C(=O)O` (centres undefined): the maximum recommended daily dose (mmol/kg-bw/day) (TherapeuticCategory: antihyperlipoproteinemic) is 0.00578.

As for `CCC(=O)O[C@]1(C(=O)COC(C)=O)CC[C@H]2[C@@H]3C[C@H](C)C4=CC(=O)C=C[C@]4(C)[C@H]3[C@@H](O)C[C@@]21C`, the maximum recommended daily dose (mmol/kg-bw/day) under setting [7] is 0.00882. As for `O[C@@H]([C@H](O)[C@@H](O)CBr)[C@@H](O)CBr`, the maximum recommended daily dose (mmol/kg-bw/day) under setting [3] was 0.0135. For `CC(C)(C)c1ccc(CN2CCN(C(c3ccccc3)c3ccc(Cl)cc3)CC2)cc1` (centres undefined), the maximum recommended daily dose (mmol/kg-bw/day) under setting [8] is 0.00577. For the compound `CN[C@@H]1[C@@H](O)[C@@H](O[C@@H]2[C@@H](O)[C@H](O[C@H]3O[C@H](CN)CC[C@H]3N)[C@@H](N)C[C@H]2N)OC[C@]1(C)O`, the maximum recommended daily dose (mmol/kg-bw/day) under setting [2] is 0.00667.

For the compound `CCOc1ccc2ccccc2c1C(=O)N[C@@H]1C(=O)N2[C@@H]1SC(C)(C)[C@@H]2C(=O)O`, under setting [2], the maximum recommended daily dose (mmol/kg-bw/day) is 0.241. Consider `Cc1ccc(O)c([C@H](CCN(C(C)C)C(C)C)c2ccccc2)c1`, for which, where the note is “TherapeuticCategory: cholinergic (acetyl-choline) receptor blockers”, the maximum recommended daily dose (mmol/kg-bw/day) is 0.0246. Turning to `Cc1cccc(Nc2ccccc2C(=O)O)c1C`, for the setting “TherapeuticCategory: anti inflammatory”, the maximum recommended daily dose (mmol/kg-bw/day) was 0.0862. On to `CN(C)CC/C=C1\c2ccccc2COc2ccc(CC(=O)O)cc21`, for which, where the note is “TherapeuticCategory: antihistaminic, antiallergic”, the maximum recommended daily dose (mmol/kg-bw/day) is 0.000987.

With `COC(=O)C(c1ccccc1)C1CCCCN1` (centres undefined), the maximum recommended daily dose (mmol/kg-bw/day) (TherapeuticCategory: CNS stimulant) is 0.00429. As to `CCC(=O)O[C@@](Cc1ccccc1)(c1ccccc1)[C@@H](C)CN(C)C`, the maximum recommended daily dose (mmol/kg-bw/day) (TherapeuticCategory: antitussive) was 0.00492. In the case of `CNCCCC1c2ccccc2C=Cc2ccccc21`, the maximum recommended daily dose (mmol/kg-bw/day) (TherapeuticCategory: antidepressant) was 0.0038. Turning to `CC(=O)[C@@]12O[C@](C)(c3ccccc3)O[C@@H]1C[C@H]1[C@@H]3CCC4=CC(=O)CC[C@]4(C)[C@H]3CC[C@@]12C`, the maximum recommended daily dose (mmol/kg-bw/day) (TherapeuticCategory: acne treatment) was 0.00557.

Turning to `CCC(=O)OCC(=O)[C@@]1(OC(=O)CC)[C@@H](C)C[C@H]2[C@@H]3CCC4=CC(=O)C=C[C@]4(C)[C@@]3(F)[C@@H](O)C[C@@]21C`, the maximum recommended daily dose (mmol/kg-bw/day) under setting [7] was 0.000297. For `N[C@@H](CCC(=O)O)C(=O)O`, the maximum recommended daily dose (mmol/kg-bw/day) (TherapeuticCategory: experimental antiepileptic) was 0.68. For the compound `C[C@]12CC[C@@H]3c4ccc(OC(=O)Cc5ccc(N(CCCl)CCCl)cc5)cc4CC[C@H]3[C@@H]1CC[C@@H]2OC(=O)Cc1ccc(N(CCCl)CCCl)cc1`, the maximum recommended daily dose (mmol/kg-bw/day) (TherapeuticCategory: estrogen) is 0.0211.

Take `Cn1c(=O)c2c(ncn2CC(O)CO)n(C)c1=O` (centres undefined): the maximum recommended daily dose (mmol/kg-bw/day) under setting [1] is 0.236. For the compound `CC1(C)S[C@@H]2[C@H](NC(=O)[C@H](N)c3ccc(O)cc3)C(=O)N2[C@H]1C(=O)O`, the maximum recommended daily dose (mmol/kg-bw/day) under setting [2] is 0.0596.

Consider `Cc1nnc2n1-c1sc(Br)cc1C(c1ccccc1Cl)=NC2`, for which the maximum recommended daily dose (mmol/kg-bw/day) under setting [5] is 1.06e-05.

As for `O=C(O)c1cc(-c2ccc(F)cc2F)ccc1O`, the maximum recommended daily dose (mmol/kg-bw/day) under setting [9] was 0.0999. Still for that read-out and setting: the same measure for `CC(C(=O)O)c1cccc(Oc2ccccc2)c1` (centres undefined): 0.206. For the compound `O=C(O)c1[nH]n(-c2ccc(S(=O)(=O)O)cc2)c(=O)c1N=Nc1ccc(S(=O)(=O)O)cc1`, the maximum recommended daily dose (mmol/kg-bw/day) (TherapeuticCategory: dye) was 0.014. On to `COc1ccc(NS(=O)(=O)c2ccc(N)cc2)nn1`, for which the maximum recommended daily dose (mmol/kg-bw/day) under setting [2] was 0.0892. As for `Cc1cccc(CN2CCN(C(c3ccccc3)c3ccc(Cl)cc3)CC2)c1` (centres undefined), under setting [8], the maximum recommended daily dose (mmol/kg-bw/day) is 0.00427.

As to `CC1(C)S[C@@H]2[C@H](NC(=O)COc3ccccc3)C(=O)N2[C@H]1C(=O)O`, under setting [2], the maximum recommended daily dose (mmol/kg-bw/day) was 0.0713. As to `Cc1ncc(C[n+]2csc(CCO)c2C)c(N)n1`, where the note is “TherapeuticCategory: enzyme cofactor vitamin”, the maximum recommended daily dose (mmol/kg-bw/day) is 0.00555. Regarding `CC[C@H](C)[C@H]1O[C@]2(CC[C@@H]1C)C[C@@H]1C[C@@H](C/C=C(\C)[C@@H](O[C@H]3C[C@H](OC)[C@@H](O[C@H]4C[C@H](OC)[C@@H](O)[C@H](C)O4)[C@H](C)O3)[C@@H](C)/C=C/C=C3\CO[C@@H]4[C@H](O)C(C)=C[C@@H](C(=O)O1)[C@]34O)O2`, the maximum recommended daily dose (mmol/kg-bw/day) under setting [6] is 0.000171. As to `CN1CCC[C@@H]1CCO[C@](C)(c1ccccc1)c1ccc(Cl)cc1`, for the setting “TherapeuticCategory: antihistaminic”, the maximum recommended daily dose (mmol/kg-bw/day) was 0.00039. As to `O=C1CN(/N=C/c2ccc(-c3ccc([N+](=O)[O-])cc3)o2)C(=O)N1`, the maximum recommended daily dose (mmol/kg-bw/day) (TherapeuticCategory: skeletal muscle relaxant) is 0.0212. On to `COc1cc(C(=O)NC2CCCNC2)cc(OC)c1OC` (centres undefined), for which the maximum recommended daily dose (mmol/kg-bw/day) (TherapeuticCategory: antiulcerative) is 0.017. For the compound `CC12C=CC(C(=O)O[C@H]3CC[C@H]4[C@@H]5CCC6=CC(=O)CC[C@@H]6[C@H]5CC[C@]34C)(CC1)CC2`, under “TherapeuticCategory: anabolic”, the maximum recommended daily dose (mmol/kg-bw/day) is 0.00788. Consider `CN(C)C(=O)Oc1cccc([N+](C)(C)C)c1`, for which the maximum recommended daily dose (mmol/kg-bw/day) (TherapeuticCategory: cholinergic) is 0.028. Consider `CCOc1ccccc1C(N)=O`, for which the maximum recommended daily dose (mmol/kg-bw/day) (TherapeuticCategory: analgesic) was 0.404. As to `CC1NCCOC1c1ccccc1` (centres undefined), the maximum recommended daily dose (mmol/kg-bw/day) (TherapeuticCategory: anorexic, CNS stimulant) is 0.00705. On to `CC(=O)OCC(=O)[C@H]1CC[C@H]2[C@@H]3CCC4=CC(=O)CC[C@]4(C)[C@H]3CC[C@]12C`, for which, where the note is “TherapeuticCategory: mineralcorticoid”, the maximum recommended daily dose (mmol/kg-bw/day) is 0.00448.

Consider `O=C(OC1C(OC(=O)c2cccnc2)C(OC(=O)c2cccnc2)C(OC(=O)c2cccnc2)C(OC(=O)c2cccnc2)C1OC(=O)c1cccnc1)c1cccnc1` (centres undefined), for which the maximum recommended daily dose (mmol/kg-bw/day) (TherapeuticCategory: vasodilator) was 0.0823.

Take `CCN(CC)CCN1C(=O)CN=C(c2ccccc2F)c2cc(Cl)ccc21`: the maximum recommended daily dose (mmol/kg-bw/day) under setting [5] was 0.00129.
